The subject of data set [1] is P-388 leukemia. Description: Antitumour activity, Test Example 1 (intraperitoneally transplanted--intraperitoneally administered). It is filed as in vivo, BDF1 mouse. Conditions: i.p., days 1 and 8, mortality observed 30 days, saline control = 0%; for ILS at 50 mg/kg: 50 mg/kg/day active ingredient; for ILS at 6.25 mg/kg: 6.25 mg/kg/day active ingredient; for ILS at 100 mg/kg: 100 mg/kg/day active ingredient. The protocol: 1×10^6 of P-388 leukemia cells per mouse were intraperitoneally transplanted into BDF1 mouse. […] The increase life span of each group was determined on such basis that the medium survival time of a control group to which physiological saline was administered was regarded to be 0% of increase life span (ILS). […] | (Note) *Increase life span is calculated by the following equation: | Increase life span % (ILS) =- | [drawing 18]

Data set [2] is described as follows: Solubility to a non-aqueous solvent, Test Example 3. In kind it is physicochemical. Conditions: 18° to 20° C.; for Solubility, Medium chain triglyceride: medium chain triglyceride (ODO). The protocol:
A stirring magnet was put into a 10 ml or 100 ml egg plant flask equipped with a stopper, and 50 mg of a test compound was introduced into this flask. Further, a suitable amount of a desired solvent was introduced thereinto, and the solubility was determined.

For data set [3], the system named is P-388 leukemia. As to the kind of experiment: Antitumour activity, Test Example 2 (intraperitoneally transplanted--intravenously injected). It is filed as in vivo, BDF1 mouse. Conditions: 10 mg/kg (active ingredient mg/kg/day), i.v. from the tail, days 1 and 8; fatty emulsion (Formulation Example 10); saline control = 0%. On the procedure:
1×10^6 of P-388 leukemia cells per mouse were intraperitoneally transplanted to BDF1 mouse. Each formulation (formulated in accordance with the below-mentioned Formulation Example 10) was intravenously injected from the tail on days 1 and 8 after the transplantation.
The increase life span (ILS, %) of each treated group was determined on such basis that the median survival time of a control group to which a physiolosical saline was administered was regarded to be 0% of increase life span (ILS). In the cases where Compounds No. 1 and No. 11 were administered at a dose (active ingredient mg/kg/day) of 10 mg/kg, ILS (%) was 46 and 27, respectively. (Note) * The increase life span was calculated in the
same manner as in Test Example 1.

Where [4] appears, read: Mus musculus, P388, ip, 720 h, 12.5 mg/kg/day active ingredient, read-out: Increase life span (ILS).
The mark [5] stands for this setting: Mus musculus, P388, ip, 720 h, read-out: Increase life span (ILS).
[6] abbreviates: Mus musculus, P388, ip, 720 h, 25 mg/kg/day active ingredient, read-out: Increase life span (ILS).
[7] abbreviates: 12.5 mg/kg/day active ingredient.

This is an account of results in patent publication US5102884A, “Substituted benzoylurea compounds or their salts, processes for their production and antitumour compositions containing them” (Ishihara Sangyo Kaisha Ltd., priority 1989, dated 1992).

For the molecule `CN(C)c1ccccc1C(=O)NC(=O)Nc1ccc(Oc2ncc(Br)cn2)c(C(F)(F)F)c1` [Compound 9, N-[4-(5-bromo-pyrimidinyloxy)-3-trifluoromethylphenyl]-N'-[2(dimethylamino)benzoyl]urea], in data set [1] (setting [4]), the ILS at 12.5 mg/kg amounted to 80%.

Consider `CN(C)c1cccc(F)c1C(=O)NC(=O)Nc1ccc(Oc2ncc(Br)cn2)c(Cl)c1` [Compound 4], for which the ILS at 50 mg/kg in data set [1] (setting [5]) stood at 135%.

On to `CN(C)c1ccccc1C(=O)NC(=O)Nc1ccc(Oc2ncc(Br)cn2)c([N+](=O)[O-])c1` [Compound 13], for which the ILS at 50 mg/kg in data set [1] (setting [5]) was found to be 27%.

Regarding `CCN(CC)c1ccccc1C(=O)NC(=O)Nc1ccc(Oc2ncc(Br)cn2)c(C)c1` [Compound 33], in data set [1] (setting [6]), the ILS at 25 mg/kg is 49%. The “Solubility, Soybean oil” value in data set [2] is “at least 13.6%”.

In the case of `CN(C)c1ccccc1C(=O)NC(=O)Nc1ccc(Oc2ncc(Cl)cn2)c(C(F)(F)F)c1` [Compound 10, N-[4-(5-chloro-2-pyrimidinyloxy)-3-trifluoromethylphenyl]-N'-[2-(dimethylamino)benzoyl]urea], the ILS at 12.5 mg/kg in data set [1] (setting [4]) stood at 39%.

Regarding `CC(=O)N(C)c1ccccc1C(=O)NC(=O)Nc1ccc(Oc2ncc(Br)cn2)c(C)c1` [Compound 52], the increase in life span (ILS) at 6.25 mg/kg in data set [1] (setting [5]) stood at 39%. Also, the ILS at 12.5 mg/kg in data set [1] (setting [4]) is 139%.

As for `Cc1cc(NC(=O)NC(=O)c2ccccc2N)ccc1Oc1ncc(Br)cn1` [Compound 27, N-(2-aminobenzoyl)-N'-[4-(5-bromo-2-pyrimidinyloxy)-3-methylphenyl]urea], the ILS at 12.5 mg/kg in data set [1] (setting [4]) amounted to 126%. Besides, the ILS at 25 mg/kg in data set [1] (setting [6]) was found to be 160%.

In the case of `CN(C)c1ccccc1C(=O)NC(=O)Nc1ccc(Oc2ncc(Cl)cn2)c([N+](=O)[O-])c1` [Compound 36], in data set [1] (setting [5]), the ILS at 100 mg/kg was determined as 68%.

As for `Cc1cc(NC(=O)NC(=O)c2ccccc2N(C)C)ccc1Oc1ncc(Br)cn1.Cl` [Compound 2, N-[4-(5-bromo-2-pyrimidinyloxy)-3methylphenyl]-N'-[2-(dimethylamino)benzoyl]urea hydrochloride], the “Increase life span (ILS)” value in data set [1] (setting [7]) worked out at 94%; in data set [1] (25 mg/kg/day active ingredient), 206%.

For the molecule `Cc1cc(NC(=O)NC(=O)c2ccccc2N(S(C)(=O)=O)S(C)(=O)=O)ccc1Oc1ncc(Br)cn1` [Compound 54], the ILS at 50 mg/kg in data set [1] (setting [5]) was found to be 49%.

As for `CCCCCCCCC(=O)Nc1ccccc1C(=O)NC(=O)Nc1ccc(Oc2ncc(Br)cn2)c(C)c1` [Compound 51], the ILS at 50 mg/kg in data set [1] (setting [5]) stood at 184%.

Consider `Cc1cc(NC(=O)NC(=O)c2ccccc2N(C)C)ccc1Oc1ncc(Br)cn1` [Compound 1, N-[4-(5-bromo-2-pyrimidinyloxy)-3methylphenyl]-N'-[2-(dimethylamino)benzoyl]urea], for which the “Increase life span (ILS)” value in data set [1] (setting [7]) was 126%; in data set [1] (25 mg/kg/day active ingredient) it was 183%; in data set [3], 46%. For the same molecule, in data set [2], the “Solubility, Medium chain triglyceride” value was 2.1-2.3%. For the same molecule, the “Solubility, Soybean oil” value in data set [2] is given as 0.46-0.49%.

For `CCCC(=O)Nc1ccccc1C(=O)NC(=O)Nc1ccc(Oc2ncc(Br)cn2)c(C)c1` [Compound 50], the ILS at 25 mg/kg in data set [1] (setting [6]) was 49%. Moreover, in data set [1] (setting [5]), the increase in life span (ILS) at 50 mg/kg turned out to be 150%.

For `COc1cc(NC(=O)NC(=O)c2ccccc2N(C)C)ccc1Oc1ncc(Cl)cn1` [Compound 35], the increase in lifespan (ILS) at 100 mg/kg in data set [1] (setting [5]) stood at 27%. Further, the ILS at 200 mg/kg in data set [1] (Mus musculus, P388, ip, 720 h, 200 mg/kg/day active ingredient, read-out: Increase life span (ILS)) came out at 53%.

As for `Cc1cc(NC(=O)NC(=O)c2c(F)cccc2N(C)C)ccc1Oc1ncc(Br)cn1` [Compound 3], the ILS at 12.5 mg/kg in data set [1] (setting [4]) came to 50%. The ILS at 25 mg/kg in data set [1] (setting [6]) was 150%.

Regarding `CC(=O)Nc1ccccc1C(=O)NC(=O)Nc1ccc(Oc2ncc(Br)cn2)c(C)c1` [Compound 49, N-[2-(acetylamino]benzoyl]-N'-[4-(5-bromo-2-pyrimidinyloxy)-3-methylphenyl]urea], the ILS at 12.5 mg/kg in data set [1] (setting [4]) was found to be 39%. For the same molecule, the ILS at 25 mg/kg in data set [1] (setting [6]) worked out at 59%.

For the molecule `Nc1ccccc1C(=O)NC(=O)Nc1ccc(Oc2ncc(Br)cn2)c(Cl)c1` [Compound 26, N-(2-aminobenzoyl)-N'-[4-(5-bromo-2-pyrimidinyloxy)-3-chlorophenyl]urea], the ILS at 12.5 mg/kg in data set [1] (setting [4]) amounted to 93%. In addition, the ILS at 25 mg/kg in data set [1] (setting [6]) was above 137%.

On to `Cc1cc(NC(=O)NC(=O)c2ccccc2N(C)C)ccc1Oc1ncc(Cl)cn1` [Compound 11, N-[4-(5-chloro-2-pyrimidinyloxy)-3methylphenyl]-N'-[2-(dimethylamino)benzoyl]urea], for which the ILS at 25 mg/kg in data set [1] (setting [6]) came to 99%. The ILS at 50 mg/kg in data set [1] (setting [5]) was determined as 132%. Further, the “Increase life span (ILS)” value in data set [3] is 27%. Also, in data set [2], the “Solubility, Medium chain triglyceride” value was 1.5-1.8% and the “Solubility, Soybean oil” value is given as 0.15-0.16%.

Consider `Cc1cc(NC(=O)NC(=O)c2ccccc2N2CCOCC2)ccc1Oc1ncc(Br)cn1` [Compound 34, N-[4-(5-bromo-2-pyrimidinyloxy)-3-methylphenyl]-N'-(2-morpholinobenzoyl)urea], for which, in data set [1] (setting [5]), the ILS at 6.25 mg/kg was found to be 49%.

By ILS is commonly meant how much longer treated animals lived than controls.
